Key:
[1] = Prodrug activation in PBS at pH 7.4 assessed as drug release by measuring maximal fluorescence change at 10 uM in presence of 1 mM GSH measured after 20 mins relative to control; settings: buffer, pH 7.4, 20 min
[2] = Prodrug activation in PBS at pH 7.4 assessed as drug release by measuring maximal fluorescence change at 10 uM in presence of 1 mM GSH measured after 30 mins relative to control; settings: buffer, pH 7.4, 0.5 h
[3] = Prodrug activation in PBS at pH 7.4 assessed as drug release at 10 uM in presence of 1 mM GSH measured immediately by HPLC analysis relative to control; settings: buffer, pH 7.4, 10 µM
[4] = Prodrug activation in PBS at pH 7.4 assessed as drug release by measuring maximal fluorescence change at 10 uM in presence of 1 mM GSH measured after 10 mins relative to control; settings: buffer, pH 7.4, 10 min
[5] = Prodrug activation in PBS at pH 7.4 assessed as drug release by measuring maximal fluorescence change at 10 uM in presence of 1 mM GSH measured after 60 mins relative to control; settings: buffer, pH 7.4, 1 h
[6] = Prodrug activation in PBS at pH 7.4 assessed as drug release at 10 uM in presence of 1 mM GSH measured after 10 mins by HPLC analysis relative to control; settings: buffer, pH 7.4, 10 min
[7] = Prodrug activation in PBS at pH 7.4 assessed as drug release by measuring maximal fluorescence change at 10 uM in presence of 1 mM GSH measured after 50 mins relative to control; settings: buffer, pH 7.4, 50 min
[8] = Prodrug activation in PBS at pH 7.4 assessed as drug release at 10 uM in presence of 1 mM GSH measured after 40 mins by HPLC analysis relative to control; settings: buffer, pH 7.4, 40 min
[9] = Prodrug activation in PBS at pH 7.4 assessed as drug release at 10 uM in presence of 1 mM GSH measured after 20 mins by HPLC analysis relative to control; settings: buffer, pH 7.4, 20 min
[10] = Prodrug activation in PBS at pH 7.4 assessed as drug release at 10 uM in presence of 1 mM GSH measured after 30 mins by HPLC analysis relative to control; settings: buffer, pH 7.4, 0.5 h
[11] = Prodrug activation in PBS at pH 7.4 assessed as drug release by measuring maximal fluorescence change at 10 uM in presence of 1 mM GSH measured after 40 mins relative to control; settings: buffer, pH 7.4, 40 min
[12] = Prodrug activation in PBS at pH 7.4 assessed as drug release by measuring maximal fluorescence change at 10 uM in presence of 1 mM GSH measured immediately relative to control; settings: buffer, pH 7.4, 10 µM
[13] = Prodrug activation in PBS at pH 7.4 assessed as drug release at 10 uM in presence of 1 mM GSH measured after 60 mins by HPLC analysis relative to control; settings: buffer, pH 7.4, 1 h
[14] = Prodrug activation in PBS at pH 7.4 assessed as drug release at 10 uM in presence of 1 mM GSH measured after 50 mins by HPLC analysis relative to control; settings: buffer, pH 7.4, 50 min
[15] = Prodrug activation in PBS at pH 7.4 assessed as drug release by measuring maximal fluorescence change at 10 uM in presence of 2 mM GSH measured after 10 mins relative to control; settings: buffer, pH 7.4, 10 min
[16] = Prodrug activation in PBS at pH 7.4 assessed as drug release at 10 uM in presence of 2 mM GSH measured after 20 mins by HPLC analysis relative to control; settings: buffer, pH 7.4, 20 min
[17] = Prodrug activation in PBS at pH 7.4 assessed as drug release at 10 uM in presence of 2 mM GSH measured after 50 mins by HPLC analysis relative to control; settings: buffer, pH 7.4, 50 min
[18] = Prodrug activation in PBS at pH 7.4 assessed as drug release at 10 uM in presence of 2 mM GSH measured after 60 mins by HPLC analysis relative to control; settings: buffer, pH 7.4, 1 h
[19] = Prodrug activation in PBS at pH 7.4 assessed as drug release at 10 uM in presence of 2 mM GSH measured after 10 mins by HPLC analysis relative to control; settings: buffer, pH 7.4, 10 min
[20] = Prodrug activation in PBS at pH 7.4 assessed as drug release by measuring maximal fluorescence change at 10 uM in presence of 2 mM GSH measured after 60 mins relative to control; settings: buffer, pH 7.4, 1 h
[21] = Prodrug activation in PBS at pH 7.4 assessed as drug release at 10 uM in presence of 2 mM GSH measured immediately by HPLC analysis relative to control; settings: buffer, pH 7.4, 10 µM
[22] = Prodrug activation in PBS at pH 7.4 assessed as drug release by measuring maximal fluorescence change at 10 uM in presence of 2 mM GSH measured after 20 mins relative to control; settings: buffer, pH 7.4, 20 min
[23] = Prodrug activation in PBS at pH 7.4 assessed as drug release at 10 uM in presence of 2 mM GSH measured after 40 mins by HPLC analysis relative to control; settings: buffer, pH 7.4, 40 min
[24] = Prodrug activation in PBS at pH 7.4 assessed as drug release by measuring maximal fluorescence change at 10 uM in presence of 2 mM GSH measured immediately relative to control; settings: buffer, pH 7.4, 10 µM
[25] = Prodrug activation in PBS at pH 7.4 assessed as drug release by measuring maximal fluorescence change at 10 uM in presence of 2 mM GSH measured after 50 mins relative to control; settings: buffer, pH 7.4, 50 min
[26] = Prodrug activation in PBS at pH 7.4 assessed as drug release at 10 uM in presence of 2 mM GSH measured after 30 mins by HPLC analysis relative to control; settings: buffer, pH 7.4, 0.5 h
[27] = Prodrug activation in PBS at pH 7.4 assessed as drug release by measuring maximal fluorescence change at 10 uM in presence of 2 mM GSH measured after 40 mins relative to control; settings: buffer, pH 7.4, 40 min
[28] = Prodrug activation in PBS at pH 7.4 assessed as drug release by measuring maximal fluorescence change at 10 uM in presence of 2 mM GSH measured after 30 mins relative to control; settings: buffer, pH 7.4, 0.5 h
[29] = Prodrug activation in PBS at pH 7.4 assessed as drug release at 10 uM in presence of 2 mM GSH measured after 60 to 300 mins by HPLC analysis relative to control; settings: buffer, pH 7.4, 10 µM, time 60-300 min
[30] = Prodrug activation in PBS at pH 7.4 assessed as drug release by measuring maximal fluorescence change at 10 uM in presence of 2 mM GSH measured after 60 to 300 mins relative to control; settings: buffer, pH 7.4, 10 µM, time 60-300 min

Row | Compound | Activity [1] [%] | Activity [2] [%] | Activity [3] [%] | Activity [4] [%] | Activity [5] [%] | Activity [6] [%] | Activity [7] [%] | Activity [8] [%] | Activity [9] [%] | Activity [10] [%] | Activity [11] [%] | Activity [12] [%] | Activity [13] [%] | Activity [14] [%] | also measured
1 | C=C(C[N+](C)(C)Cc1ccccc1)C(=O)c1ccc2cc(N(C)C)ccc2c1.[Br-] | 90.6 | 90.6 | 0 | 48.1 | 99 | 95.6 | 98.4 | 98.5 | 97.8 | 98.2 | 97.2 | 0.5 | 98.9 | 99.6 | 
2 | C=C(COC(=O)OCc1ccccc1)C(=O)c1ccc2cc(N(C)C)ccc2c1 | 65.4 | 83.6 | 0 | 41 | 97.4 | 93.4 | 96.5 | 94.6 | 94.5 | 95.5 | 96.5 | 3.9 | 95.1 | 94.6 | 
3 | C=C(CSc1ccccc1)C(=O)c1ccc2cc(N(C)C)ccc2c1 | 53.5 | 72.2 | 0 | 27.2 | 96.5 | 42.6 | 93.7 | 95.1 | 76.6 | 90.6 | 86.3 | 3.1 | 95.4 | 94.8 | 
4 | C=C(CN(C)Cc1ccccc1)C(=O)c1ccc2cc(N(C)C)ccc2c1 | 72.5 | 85.1 | 0 | 50.5 | 97.1 | 88.2 | 96.5 | 92 | 91.8 | 92.2 | 93.5 | 3.8 | 92.4 | 93.1 | 
5 | C=C(COC(=O)c1ccccc1)C(=O)c1ccc2cc(N(C)C)ccc2c1 |  |  |  |  |  |  |  |  |  |  |  |  |  |  | Activity [15]: 40.1%; Activity [16]: 97.3%; Activity [17]: 99.9%; Activity [18]: 72.1%; Activity [19]: 92.8%; Activity [20]: 83.2%; Activity [21]: 0%; Activity [22]: 71.2%; Activity [23]: 98.7%; Activity [24]: 1.4%; Activity [25]: 97.8%; Activity [26]: 98.6%; Activity [27]: 95.7%; Activity [28]: 88.1%
6 | C=C(COC(=O)Nc1ccccc1)C(=O)c1ccc2cc(N(C)C)ccc2c1 | 64.6 | 79.9 | 0 | 39.3 | 96.5 | 82.6 | 94.6 | 97.1 | 91.1 | 96.5 | 88.9 | 2.7 | 98.2 | 97.9 | 
7 | C=C(COC(=O)Cc1ccccc1)C(=O)c1ccc2cc(N(C)C)ccc2c1 | 71.5 | 89.2 | 0 | 42.4 | 98.1 | 94.3 | 97.7 | 97.5 | 97.1 | 98.3 | 95.3 | 1.2 | 99.1 | 98.7 | 
8 | C=C(CSCc1ccccc1)C(=O)c1ccc2cc(N(C)C)ccc2c1 |  |  |  |  |  |  |  |  |  |  |  |  |  |  | Activity [29]: 99.9%; Activity [15]: 14.8%; Activity [16]: 13.9%; Activity [17]: 68.6%; Activity [19]: 5.6%; Activity [30]: 98.6%; Activity [21]: 0%; Activity [22]: 22.1%; Activity [23]: 35.2%; Activity [24]: 4.8%; Activity [25]: 78.3%; Activity [26]: 19.9%; Activity [27]: 42.2%; Activity [28]: 27.5%
9 | C=C(COc1ccccc1)C(=O)c1ccc2cc(N(C)C)ccc2c1 | 70.1 | 87.9 | 0 | 38.8 | 99.1 | 91.2 | 97.3 | 92.7 | 93.5 | 93.5 | 95.5 | 0.7 | 93.5 | 93.2 | 

Reference: ChEMBL document CHEMBL5154867, “Baylis-Hillman Adducts as a Versatile Module for Constructing Fluorogenic Release System” (J Med Chem, 2022)
